Literature values, collected in US8748589B2, “Complex crystalline sugar comprising D-psicose and D-allose and process for production of the same” (priority 2005, dated 2014).

Test system: L-rhamnose isomerase
Conditions: for inhibition of L-rhamnose isomerase activity by coexisting chelating agent: chelating agent present at the time of measurement of the activity

| Structure (SMILES) | inhibition of L-rhamnose isomerase activity by coexisting chelating agent | inhibition of L-rhamnose isomerase activity by metal ion (1 mM cobalt ion) |
| --- | --- | --- |
| O=C(O)CN(CCN(CC(=O)O)CC(=O)O)CC(=O)O [EDTA] | Almost no activity was inhibited |  |
| O=C(O)CN(CCOCCOCCN(CC(=O)O)CC(=O)O)CC(=O)O [EGTA] | Almost no activity was inhibited |  |
| [Co+2] [cobalt ion] |  | About 30% |
